What was measured:
human sEH = target: T1, human sEH (Homo sapiens, UniProt P34913); experiment: FRET competitive displacement assay; assay type: binding; conditions: for residence time: read-out: t1/2 (residence time on the enzyme)
T1 sequence (P34913 1-555): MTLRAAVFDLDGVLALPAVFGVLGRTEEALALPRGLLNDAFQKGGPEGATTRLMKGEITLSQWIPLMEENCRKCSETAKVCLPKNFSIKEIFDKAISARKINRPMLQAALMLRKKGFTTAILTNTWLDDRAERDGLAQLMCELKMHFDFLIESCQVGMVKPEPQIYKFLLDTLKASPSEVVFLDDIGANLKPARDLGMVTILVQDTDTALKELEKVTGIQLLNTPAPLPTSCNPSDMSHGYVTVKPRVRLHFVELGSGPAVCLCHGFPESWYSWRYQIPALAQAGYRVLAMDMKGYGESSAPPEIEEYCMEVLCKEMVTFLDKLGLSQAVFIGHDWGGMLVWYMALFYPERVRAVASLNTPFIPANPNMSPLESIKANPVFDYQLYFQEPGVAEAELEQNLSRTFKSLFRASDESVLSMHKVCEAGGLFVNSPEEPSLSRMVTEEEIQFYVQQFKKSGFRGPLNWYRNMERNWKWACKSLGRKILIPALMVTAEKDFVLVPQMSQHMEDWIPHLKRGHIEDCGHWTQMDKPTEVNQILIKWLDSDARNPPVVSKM

[1] = target: T2, recombinant purified human sEH (Homo sapiens, UniProt P34913); experiment: sEH inhibition, kinetic fluorescent assay with CMNPC substrate; assay type: biochemical
T2 sequence (P34913 1-555): T1 sequence (P34913 1-555)

Row | koff (human sEH) | residence time (human sEH) | inhibition potency in words [1] | SMILES
1 | 0.00142 s⁻¹ | 8 min | – | CC(NC(=O)NCCCCNC(=O)NC(C)C12CC3CC(CC(C3)C1)C2)C12CC3CC(CC(C3)C1)C2 (centres unmarked) [2b]
2 | 0.00461 s⁻¹ | 2.5 min | – | O=C(NCCCCCCCCNC(=O)NC1C2CC3CC(C2)CC1C3)NC1C2CC3CC(C2)CC1C3 (centres unmarked) [3d]

Continued, compound first:

Row | SMILES | koff (human sEH) | residence time (human sEH) | inhibition potency in words [1]
3 | O=C(NCCCCCCNC(=O)NCC12CC3CC(CC(C3)C1)C2)NCC12CC3CC(CC(C3)C1)C2 [1c] | 0.00116 s⁻¹ | 10 min | –
4 | O=C(NCC12CC3CC(CC(C3)C1)C2)Nc1ccc(NC(=O)NCC23CC4CC(CC(C4)C2)C3)cc1 [1e] | – | – | poor potency
5 | O=C(NCC1CCN(C(=O)NCC23CC4CC(CC(C4)C2)C3)CC1)NCC12CC3CC(CC(C3)C1)C2 [1f] | – | – | poor potency

Reference: article PMC4019751 (Bioorganic & medicinal chemistry letters, 2014)
